The results in this text go back to US7569593B2, “Compounds and compositions as protein kinase inhibitors” (IRM LLC, priority 2003, dated 2009).

Common to all, as to type: biochemical
One experiment addresses b-Raf (Homo sapiens, UniProt P15056). The experiment can be described thus: b-Raf kinase inhibition assay (IκBα substrate, 384-well plate). The note with it: read-out: IC50 against b-Raf. How it is done: Compounds of the invention are tested for their ability to inhibit the activity of b-Raf. The assay is carried out in 384-well MaxiSorp plates (NUNC) with black walls and clear bottom. The substrate, IκBα is diluted in DPBS (1:750) and 15 μl is added to each well. The plates are incubated at 4° C. overnight and washed 3 times with TBST (25 mM Tris, pH 8.0, 150 mM NaCl and 0.05% Tween-20) using the EMBLA plate washer. Plates are blocked by Superblock (15 μl/well) for 3 hours at room temperature, washed 3 times with TBST and pat-dried. Assay buffer containing 20 μM ATP (10 μl) is added to each well followed by 100 nl or 500 nl of compound. B-Raf is diluted in the assay buffer (1 μl into 25 μl) and 10 μl of diluted b-Raf is added to each well (0.4 μg/well). The plates are incubated at room temperature for 2.5 hours. The kinase reaction is stopped by washing the plates 6 times with TBST. Phosph-IκBα (Ser32/36) antibody is diluted in Superblock (1:10,000) and 15 μl is added to each well. The plates are incubated at 4° C. overnight and washed 6 times with TBST. AP-conjugated goat-anti-mouse IgG is diluted in Superblock (1:1,500) and 15 μl is added to each well. Plates are incubated at room temperature for 1 hour and washed 6 times with TBST. […] Plates are read on Acquest or Analyst GT using a Fluorescence Intensity Nanxin BBT anion (505 dichroic mirror).

For another experiment, the target named is T1, SAPK2α (Homo sapiens, UniProt Q16539).
T1 construct: purchased Upstate (KinaseProfiler panel)
The experiment can be described thus: Upstate KinaseProfiler radio-enzymatic filter binding assay. To be noted: at a concentration of 10 μM; 100% means complete inhibition; read-out: percentage inhibition of SAPK2α. How it is done: (§1) Compounds of the invention are assessed for their ability to inhibit individual members of a panel of kinases (a partial, non-limiting list of kinases includes: Abl, BCR-Abl, EGF-R, c-erbB2 kinase (HER-2), PDGF-R, lck, SAPK2α, p38, TGFβ, KDR, c-Kit, b-RAF, c-RAF, FLTI and FLT4). The compounds are tested in duplicates at a final concentration of 10 μM following this generic protocol. Note that the kinase buffer composition and the substrates vary for the different kinases included in the “Upstate KinaseProfiler™” panel. Kinase buffer (2.5 μL, 10x—containing MnCl2 when required), active kinase (0.001-0.01 Units; 2.5 μL), specific or Poly(Glu4-Tyr) peptide (5-500 μM or .01mg/ml) in kinase buffer and kinase buffer ([…]; 5 μL) are mixed in an eppendorf on ice. A Mg/ATP mix (10 μL; 67.5 (or 33.75) mM MgCl2, 450 (or 225) μM ATP and 1 μCi/μl [γ-^32P]-ATP (3000 Ci/mmol)) is added and the reaction is incubated at about 30° C. for about 10 minutes. The reaction mixture is spotted (20 μL) onto a 2 cm×2 cm P81 (phosphocellulose, for positively charged peptide substrates) or Whatman No. 1 (for Poly (Glu4-Tyr) peptide substrate) paper square. The assay squares are washed 4 times, for 5 minutes each, with 0.75% phosphoric acid and washed once with acetone for 5 minutes. The assay squares are transferred to a scintillation vial, 5 ml scintillation cocktail are added and ^32P incorporation (cpm) to the peptide substrate is quantified with a Beckman scintillation counter. Percentage inhibition is calculated for each reaction.

The next experiment addresses T2, c-RAF (Homo sapiens, UniProt P04049).
T2 construct: purchased Upstate (KinaseProfiler panel)
The experiment is described as above. The note with it: at a concentration of 10 μM; 100% means complete inhibition; read-out: percentage inhibition of c-RAF. Here is the method: as §1

The next experiment deals with T3, Abl (Homo sapiens, UniProt P00519).
T3 construct: purchased Upstate (KinaseProfiler panel)
The description is as above. To be noted: at a concentration of 10 μM; 100% means complete inhibition; read-out: percentage inhibition of Abl. How it is done: as §1

The target in the next experiment is T4, Lck (Homo sapiens, UniProt P06239).
T4 construct: purchased Upstate (KinaseProfiler panel)
Described as above. The note with it: at a concentration of 10 μM; 100% means complete inhibition; read-out: percentage inhibition of Lck. How it is done:
as §1

Chain of b-Raf (P15056 whole entry): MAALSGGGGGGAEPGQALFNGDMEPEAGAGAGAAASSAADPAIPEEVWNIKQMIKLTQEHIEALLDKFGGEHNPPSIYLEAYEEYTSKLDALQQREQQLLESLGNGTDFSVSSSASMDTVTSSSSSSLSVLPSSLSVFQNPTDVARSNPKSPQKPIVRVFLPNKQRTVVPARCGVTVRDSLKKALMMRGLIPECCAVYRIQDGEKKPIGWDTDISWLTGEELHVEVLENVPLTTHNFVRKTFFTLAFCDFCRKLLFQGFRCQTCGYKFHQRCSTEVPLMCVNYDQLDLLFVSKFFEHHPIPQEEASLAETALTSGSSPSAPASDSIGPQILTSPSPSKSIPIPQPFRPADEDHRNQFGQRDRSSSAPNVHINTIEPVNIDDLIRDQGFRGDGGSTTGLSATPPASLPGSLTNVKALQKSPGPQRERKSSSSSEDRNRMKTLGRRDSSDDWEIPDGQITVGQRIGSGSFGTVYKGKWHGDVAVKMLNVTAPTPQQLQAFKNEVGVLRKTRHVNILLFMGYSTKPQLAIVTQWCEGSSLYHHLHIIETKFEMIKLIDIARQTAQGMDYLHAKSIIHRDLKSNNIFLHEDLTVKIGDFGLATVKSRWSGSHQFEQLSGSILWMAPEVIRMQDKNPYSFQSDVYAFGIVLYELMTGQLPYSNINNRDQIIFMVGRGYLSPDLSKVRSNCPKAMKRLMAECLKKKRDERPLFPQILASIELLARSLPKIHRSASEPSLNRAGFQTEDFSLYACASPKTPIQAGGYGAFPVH
T2 sequence (P04049 whole entry): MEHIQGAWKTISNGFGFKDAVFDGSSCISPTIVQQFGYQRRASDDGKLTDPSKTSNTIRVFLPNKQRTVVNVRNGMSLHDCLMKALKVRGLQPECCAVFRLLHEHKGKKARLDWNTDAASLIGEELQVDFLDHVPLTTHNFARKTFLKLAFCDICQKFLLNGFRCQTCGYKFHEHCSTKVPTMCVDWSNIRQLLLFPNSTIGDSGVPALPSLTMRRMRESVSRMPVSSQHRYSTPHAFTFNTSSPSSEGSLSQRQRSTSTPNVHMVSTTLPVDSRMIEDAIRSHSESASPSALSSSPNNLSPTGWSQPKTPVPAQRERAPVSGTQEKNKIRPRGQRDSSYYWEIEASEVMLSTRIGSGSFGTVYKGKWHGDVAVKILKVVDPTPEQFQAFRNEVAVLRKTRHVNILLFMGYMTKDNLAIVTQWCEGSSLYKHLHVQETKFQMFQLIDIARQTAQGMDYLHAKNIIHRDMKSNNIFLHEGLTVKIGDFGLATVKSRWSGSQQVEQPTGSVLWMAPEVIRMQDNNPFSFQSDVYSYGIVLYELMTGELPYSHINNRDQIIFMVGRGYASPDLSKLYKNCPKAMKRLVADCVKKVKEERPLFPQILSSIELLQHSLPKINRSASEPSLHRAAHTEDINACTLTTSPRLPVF
T4 sequence (P06239 whole entry, species assumed): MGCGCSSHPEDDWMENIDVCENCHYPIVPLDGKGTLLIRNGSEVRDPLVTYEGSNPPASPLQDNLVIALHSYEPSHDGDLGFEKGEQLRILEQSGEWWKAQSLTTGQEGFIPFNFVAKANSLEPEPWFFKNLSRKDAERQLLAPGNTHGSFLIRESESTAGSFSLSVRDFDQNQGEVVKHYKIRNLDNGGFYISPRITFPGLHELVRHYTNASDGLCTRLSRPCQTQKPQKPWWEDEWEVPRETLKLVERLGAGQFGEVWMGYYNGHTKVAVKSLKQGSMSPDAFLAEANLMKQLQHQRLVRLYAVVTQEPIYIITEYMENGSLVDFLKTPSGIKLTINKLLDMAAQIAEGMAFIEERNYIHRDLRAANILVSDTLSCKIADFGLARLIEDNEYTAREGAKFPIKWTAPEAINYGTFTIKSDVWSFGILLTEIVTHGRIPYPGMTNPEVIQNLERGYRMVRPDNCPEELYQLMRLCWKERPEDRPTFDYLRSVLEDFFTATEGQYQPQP
T1 sequence (Q16539 whole entry): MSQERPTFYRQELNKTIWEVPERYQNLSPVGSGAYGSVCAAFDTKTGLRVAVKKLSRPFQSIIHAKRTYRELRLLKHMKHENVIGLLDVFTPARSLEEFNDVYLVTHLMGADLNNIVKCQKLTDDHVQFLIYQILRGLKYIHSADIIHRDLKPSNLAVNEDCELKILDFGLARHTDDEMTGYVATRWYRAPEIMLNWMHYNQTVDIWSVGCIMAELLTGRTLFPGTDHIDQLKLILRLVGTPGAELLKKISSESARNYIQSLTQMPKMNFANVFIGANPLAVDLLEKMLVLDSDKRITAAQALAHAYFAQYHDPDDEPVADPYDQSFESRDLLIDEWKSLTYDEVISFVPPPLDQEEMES
T3 sequence (P00519 whole entry, species assumed): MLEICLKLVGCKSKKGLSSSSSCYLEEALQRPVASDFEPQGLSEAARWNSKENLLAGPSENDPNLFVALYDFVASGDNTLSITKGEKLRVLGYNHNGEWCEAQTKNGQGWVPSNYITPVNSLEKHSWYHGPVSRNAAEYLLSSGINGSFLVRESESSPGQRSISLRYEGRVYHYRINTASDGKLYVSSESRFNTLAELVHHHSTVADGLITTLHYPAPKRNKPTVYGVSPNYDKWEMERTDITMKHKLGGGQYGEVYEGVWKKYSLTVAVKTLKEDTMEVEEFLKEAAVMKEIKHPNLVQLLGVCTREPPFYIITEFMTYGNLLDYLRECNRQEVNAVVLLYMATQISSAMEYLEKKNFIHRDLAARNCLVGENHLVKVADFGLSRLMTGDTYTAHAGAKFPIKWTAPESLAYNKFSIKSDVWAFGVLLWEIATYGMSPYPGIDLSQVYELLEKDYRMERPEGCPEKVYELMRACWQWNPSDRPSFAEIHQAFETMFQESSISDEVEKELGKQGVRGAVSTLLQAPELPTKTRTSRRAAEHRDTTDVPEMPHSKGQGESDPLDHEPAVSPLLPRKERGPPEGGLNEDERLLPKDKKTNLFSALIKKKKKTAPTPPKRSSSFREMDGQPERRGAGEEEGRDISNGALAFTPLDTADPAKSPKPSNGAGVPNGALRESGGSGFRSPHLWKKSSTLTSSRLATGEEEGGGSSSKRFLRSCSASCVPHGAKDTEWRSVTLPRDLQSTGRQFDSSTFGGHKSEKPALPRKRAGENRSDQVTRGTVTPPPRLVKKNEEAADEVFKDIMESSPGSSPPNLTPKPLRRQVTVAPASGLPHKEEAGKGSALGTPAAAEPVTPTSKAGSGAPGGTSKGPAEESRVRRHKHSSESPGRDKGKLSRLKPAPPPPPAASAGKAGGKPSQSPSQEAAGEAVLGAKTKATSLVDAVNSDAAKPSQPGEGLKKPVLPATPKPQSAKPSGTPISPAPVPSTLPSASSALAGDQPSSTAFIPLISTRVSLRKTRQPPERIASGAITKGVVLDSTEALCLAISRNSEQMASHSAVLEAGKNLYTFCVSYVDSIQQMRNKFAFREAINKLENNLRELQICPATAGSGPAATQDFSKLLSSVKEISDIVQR

In the case of `Oc1ccc2cc(-c3nc(-c4ccccc4)[nH]c3-c3ccncc3)ccc2c1` [Compound 11, 6-(2-phenyl-5-pyridin-4-yl-1H-imidazol-4-yl)-naphthalen-2-ol], the half-inhibitory concentration (IC50) – broadly, the concentration at which inhibition is half-maximal – on b-Raf came out at 300 nM. Besides, the inhibition (usually the share of the control response that was lost under treatment) at 10 µM at SAPK2α was found to be 74%; on c-RAF it was 98%; on Abl it was 98%; on Lck it was 61%.

`CN(C)c1ccc(NC(=O)Oc2ccc3cc(-c4nc(-c5ccccc5)[nH]c4-c4ccncc4)ccc3c2)cc1` [Compound 15, (4-dimethylamino-phenyl)-carbamic acid 6-(2-phenyl-5-pyridin-4-yl-1H-imidazol-4-yl)-naphthalen-2-yl ester]: the 50% inhibitory concentration (IC50) at b-Raf came to 879 nM.
